Experimental findings from US11149033B2, “Heteroaryl compound, enantiomer, diastereomer or pharmaceutically acceptable salt thereof, and antiviral composition containing same as active ingredient” (priority 2016, dated 2021) are described below.

The subject of data set [1] is A/California/07/2009 (H1N1). Kind of data set: Antiviral activity (drug efficacy evaluation by concentration) against A/California/07/2009 (H1N1). Format: cell-based, A type influenza virus. As to conditions: Influenza A virus, H1N1; read-out: EC50.
Another data set relates to B/Florida/04/2006. Kind of data set: Antiviral activity (drug efficacy evaluation by concentration) against B/Florida/04/2006. Format: cell-based, B type influenza virus.
A further data set relates to A/Perth/16/2009 (H3N2). Kind of data set: Antiviral activity (drug efficacy evaluation by concentration) against A/Perth/16/2009 (H3N2). The format is cell-based, A type influenza virus. The settings on record: Influenza A virus, H3N2; read-out: EC50.
[2] abbreviates: CC50, third EC50/CC50 column pair (c7), beside the EC50 of c6.

pEC50: −log10 of the molar value.

The compound `CC(C)c1cccc(Cc2nnc(/C=C/c3ccc(F)cc3Cl)o2)c1` [Compound 182, (E)-2-(2-chloro-4-fluorostyryl)-5-(3-isopropylbenzyl)-1,3,4-oxadiazole] registered a melting point of 117.3 °C. Also, in data set [1], the negative logarithm of the EC50 (pEC50) is 6.21. This compound also gave a negative-log EC50 (pEC50) in the data set on B/Florida/04/2006 of 6.26. Besides, the pEC50 in the data set with A/Perth/16/2009 (H3N2) is 6.43. The CC50 in the data set “in vitro” (CC50, beside the EC50 of c2) was > 50 µM. Further, the CC50 in the data set “in vitro” (CC50, beside the EC50 of c4) is > 50 µM. Besides, the CC50 in “in vitro” (setting [2]) was > 50 µM.
`Brc1ccc(Cc2nc(/C=C/c3ccccc3)no2)cc1` [Compound 183, (E)-5-(4-bromobenzyl)-3-styryl-1,2,4-oxadiazole] had a melting point of 78.4 °C. The negative-log EC50 (pEC50) in data set [1] is 5.87. The same compound gave a pEC50 with B/Florida/04/2006 of 5.73. For the same compound, the negative-log EC50 (pEC50) in the data set on A/Perth/16/2009 (H3N2) was 6.04. In the data set “in vitro” (CC50, beside the EC50 of c2), the CC50 is > 50 µM. For the same compound, the CC50 in “in vitro” (CC50, beside the EC50 of c4) is > 50 µM. Besides, the CC50 in the data set “in vitro” (setting [2]) was > 50 µM.
For `Fc1ccc(/C=C/c2nnc(Cc3ccc(Br)c(F)c3)o2)c(Cl)c1` [Compound 184, (E)-2-(4-bromo-3-fluorobenzyl)-5-(2-chloro-4-fluorostyryl)-1,3,4-oxadiazole], the melting point turned out to be 166.2 °C. The pEC50 in data set [1] is < 4.30. Further, in the data set on B/Florida/04/2006, the pEC50 is < 4.30. Moreover, the negative-log EC50 (pEC50) in the data set on A/Perth/16/2009 (H3N2) is < 4.30. Also, the CC50 in “in vitro” (CC50, beside the EC50 of c2) was > 50 µM. Also, the CC50 in the data set “in vitro” (CC50, beside the EC50 of c4) is > 50 µM. Further, in “in vitro” (setting [2]), the CC50 was > 50 µM.
On to `Fc1ccc(/C=C/c2nnc(Cc3cccc4ccccc34)o2)c(Cl)c1` [Compound 185, (E)-2-(2-chloro-4-fluorostyryl)-5-(naphthalen-1-ylmethyl)-1,3,4-oxadiazole], for which the melting point was 152.7 °C. The negative-log EC50 (pEC50) in data set [1] is < 4.30. In addition, the negative-log EC50 (pEC50) in the data set on B/Florida/04/2006 was < 4.30. Also, the negative-log EC50 (pEC50) in the data set with A/Perth/16/2009 (H3N2) was < 4.30. In addition, the CC50 in the data set “in vitro” (CC50, beside the EC50 of c2) is > 50 µM. Also, in the data set “in vitro” (CC50, beside the EC50 of c4), the CC50 is > 50 µM. Also, the CC50 in the data set “in vitro” (setting [2]) was > 50 µM.
In turn, `Fc1ccccc1/C=C/c1nnc(Cc2cccc(Cl)c2)o1` [Compound 187, 2-(3-chlorobenzyl)-5-(2-fluorostyryl)-1,3,4-oxadiazole] had a melting point of 117.3 °C. Moreover, the negative-log EC50 (pEC50) in data set [1] is 5.72. Moreover, the negative logarithm of the EC50 (pEC50) with B/Florida/04/2006 was 5.77. Moreover, the pEC50 in the data set with A/Perth/16/2009 (H3N2) was 5.82. In addition, in “in vitro” (CC50, beside the EC50 of c2), the CC50 was > 50 µM. Moreover, the CC50 in the data set “in vitro” (CC50, beside the EC50 of c4) is > 50 µM. Moreover, the CC50 in the data set “in vitro” (setting [2]) is > 50 µM.
Turning to `Fc1ccc(/C=C/c2nnc(Cc3cccc(Br)c3)o2)cc1` [Compound 188, 2-(3-bromobenzyl)-5-(4-fluorostyryl)-1,3,4-oxadiazole], the melting point was determined as 95.3 °C. In addition, the negative logarithm of the EC50 (pEC50) in data set [1] is 5.02. Moreover, in the data set with B/Florida/04/2006, the pEC50 was 4.91. For the same compound, in the data set on A/Perth/16/2009 (H3N2), the negative logarithm of the EC50 (pEC50) is 4.94. The CC50 in “in vitro” (CC50, beside the EC50 of c2) is > 50 µM. Further, the CC50 in “in vitro” (CC50, beside the EC50 of c4) is > 50 µM. The CC50 in “in vitro” (setting [2]) is > 50 µM.
In the case of `Fc1ccc(/C=C/c2nnc(Cc3cccc(Br)c3)o2)cc1F` [Compound 191, 2-(3-bromobenzyl)-5-(3,4-difluorostyryl)-1,3,4-oxadiazole], the melting point was 112.8 °C. Besides, the pEC50 in data set [1] was 5.08. In the data set on B/Florida/04/2006, this compound gave a pEC50 of 4.88. The pEC50 in the data set with A/Perth/16/2009 (H3N2) is 5.30. The CC50 in the data set “in vitro” (CC50, beside the EC50 of c2) was > 50 µM. For the same compound, the CC50 in the data set “in vitro” (CC50, beside the EC50 of c4) is > 50 µM. Besides, the CC50 in the data set “in vitro” (setting [2]) was > 50 µM.
Take `Clc1ccc(/C=C/c2nnc(Cc3cccc(Br)c3)o2)c(Cl)c1` [Compound 192, 2-(3-bromobenzyl)-5-(2,4-dichlorostyryl)-1,3,4-oxadiazole]: the melting point is 142.4 °C. The negative-log EC50 (pEC50) in data set [1] is 5.33. In the data set on B/Florida/04/2006, this compound had a pEC50 of 5.26. For the same compound, the negative logarithm of the EC50 (pEC50) with A/Perth/16/2009 (H3N2) is 5.59. Also, the CC50 in “in vitro” (CC50, beside the EC50 of c2) is > 50 µM. In addition, the CC50 in the data set “in vitro” (CC50, beside the EC50 of c4) is > 50 µM. Also, in “in vitro” (setting [2]), the CC50 was > 50 µM.
In turn, `Fc1ccc(Cl)c(/C=C/c2nnc(Cc3cccc(Br)c3)o2)c1` [Compound 193, 2-(3-bromobenzyl)-5-(2-chloro-5-fluorostyryl)-1,3,4-oxadiazole] yielded a melting point of 97.1 °C. In data set [1], the negative logarithm of the EC50 (pEC50) was < 4.30. In the data set with B/Florida/04/2006, the pEC50 was < 4.30. Moreover, the pEC50 in the data set with A/Perth/16/2009 (H3N2) was < 4.30. Further, the CC50 in the data set “in vitro” (CC50, beside the EC50 of c2) was > 50 µM. Moreover, the CC50 in “in vitro” (CC50, beside the EC50 of c4) is > 50 µM. The CC50 in “in vitro” (setting [2]) was > 50 µM.
The compound `Fc1cccc(/C=C/c2nnc(Cc3cccc(Br)c3)o2)c1Cl` [Compound 194, 2-(3-bromobenzyl)-5-(2-chloro-3-fluorostyryl)-1,3,4-oxadiazole] had a melting point of 140.2 °C. Further, the pEC50 in data set [1] was 5.88. The compound further had a pEC50 with B/Florida/04/2006 of 5.82. Also, the negative-log EC50 (pEC50) in the data set on A/Perth/16/2009 (H3N2) is 5.84. The compound also registered a CC50 in the data set “in vitro” (CC50, beside the EC50 of c2) of 49.9 µM. Also, in the data set “in vitro” (CC50, beside the EC50 of c4), the CC50 was > 50 µM. Also, the CC50 in “in vitro” (setting [2]) is > 50 µM.
Regarding `Brc1ccc(Cc2nnc(/C=C/c3cccc4ccccc34)o2)cc1` [Compound 197, 2-(4-bromobenzyl)-5-(2-(naphthalen-1-yl)vinyl)-1,3,4-oxadiazole], the melting point was determined as 116 °C. In addition, the negative-log EC50 (pEC50) in data set [1] was 4.57. Besides, the negative logarithm of the EC50 (pEC50) with B/Florida/04/2006 is 4.36. The pEC50 in the data set on A/Perth/16/2009 (H3N2) was 4.34. Moreover, in the data set “in vitro” (CC50, beside the EC50 of c2), the CC50 was > 50 µM. In addition, in the data set “in vitro” (CC50, beside the EC50 of c4), the CC50 was > 50 µM. Moreover, the CC50 in the data set “in vitro” (setting [2]) is > 50 µM.
`Cc1cc(C(F)(F)F)ccc1/C=C/c1nnc(Cc2cccc(Br)c2)o1` [Compound 198, 2-(3-bromobenzyl)-5-(2-methyl-4-(trifluoromethyl)styryl)-1,3,4-oxadiazole] gave a melting point of 116 °C. In data set [1], the negative-log EC50 (pEC50) is 4.45. This compound had a pEC50 in the data set on B/Florida/04/2006 of 4.32. Further, the pEC50 in the data set with A/Perth/16/2009 (H3N2) was < 4.30. In addition, in “in vitro” (CC50, beside the EC50 of c2), the CC50 was > 50 µM. For the same compound, the CC50 in the data set “in vitro” (CC50, beside the EC50 of c4) is > 50 µM. In the data set “in vitro” (setting [2]), the CC50 is > 50 µM.
In the case of `FC(F)(F)c1ccc(Cl)c(/C=C/c2nnc(Cc3cccc(Br)c3)o2)c1` [Compound 199, 2-(3-bromobenzyl)-5-(2-chloro-5-(trifluoromethyl)styryl)-1,3,4-oxadiazole], the melting point came to 106.9 °C. Besides, the pEC50 in data set [1] was 5.07. Also, the pEC50 in the data set on B/Florida/04/2006 is 5.00. Moreover, the pEC50 in the data set on A/Perth/16/2009 (H3N2) is 5.20. Also, the CC50 in the data set “in vitro” (CC50, beside the EC50 of c2) is > 50 µM. In addition, in “in vitro” (CC50, beside the EC50 of c4), the CC50 was > 50 µM. Further, the CC50 in the data set “in vitro” (setting [2]) was > 50 µM.
Regarding `Cc1ccc(/C=C/c2nnc(Cc3cccc(Br)c3)o2)c(C)c1` [Compound 200, 2-(3-bromobenzyl)-5-(2,4-dimethylstyryl)-1,3,4-oxadiazole], the melting point is 74.2 °C. The negative-log EC50 (pEC50) in data set [1] was 4.93. This compound also showed a pEC50 in the data set with B/Florida/04/2006 of 4.99. Moreover, the pEC50 in the data set with A/Perth/16/2009 (H3N2) is 4.92. In addition, in “in vitro” (CC50, beside the EC50 of c2), the CC50 is > 50 µM. Also, the CC50 in the data set “in vitro” (CC50, beside the EC50 of c4) was > 50 µM. Moreover, the CC50 in “in vitro” (setting [2]) is > 50 µM.
The compound `Oc1cccc(Cc2nnc(/C=C/c3ccc(F)cc3Cl)o2)c1` [Compound 201, (E)-3-((5-(2-chloro-4-fluorostyryl)-1,3,4-oxadiazol-2-yl)methyl)phenol] yielded a melting point of 152.7 °C. For the same compound, in data set [1], the pEC50 is 5.49. Moreover, in the data set on B/Florida/04/2006, the pEC50 was 5.43. For the same compound, the negative-log EC50 (pEC50) in the data set on A/Perth/16/2009 (H3N2) is 5.52. The CC50 in the data set “in vitro” (CC50, beside the EC50 of c2) was > 50 µM. For the same compound, the CC50 in “in vitro” (CC50, beside the EC50 of c4) was > 50 µM. For the same compound, the CC50 in “in vitro” (setting [2]) was > 50 µM.
Take `Oc1ccccc1/C=C/c1nnc(Cc2ccc(Br)cc2)o1` [Compound 209, 2-(2-(5-(4-bromobenzyl)-1,3,4-oxadiazol-2-yl)vinyl)phenol]: the melting point is 168.3 °C. Besides, in data set [1], the pEC50 is 4.33. For the same compound, the pEC50 in the data set on B/Florida/04/2006 is < 4.30. Further, the negative logarithm of the EC50 (pEC50) in the data set with A/Perth/16/2009 (H3N2) is 4.54. Also, in the data set “in vitro” (CC50, beside the EC50 of c2), the CC50 is > 50 µM. Further, in the data set “in vitro” (CC50, beside the EC50 of c4), the CC50 was > 50 µM. In addition, the CC50 in “in vitro” (setting [2]) is > 50 µM.
